Converted amounts (≈) assume the structure as drawn.
Columns and labels:
[1] = tested on: cancers identified herein; test: Administration to patients having cancers (Example 5); assay type: in vivo; conditions: Example 5, present tense
Description: Each of these compounds is administered with Vitamin D3, a derivative, metabolite or analog thereof and the combination is found to increase the anti-tumor effects of the compounds.

[2] = tested on: human glioblastoma bulk cells; conditions: Rodak et al., J. Neurosurg., 102, 1055-68, 2005; cited from earlier work
[3] = tested on: murine SMA 560 bulk glioma cells; conditions: SMA 560 bulk cells, 24 h and 48 h incubation
Description: (§1) The mouse SMA560 glioma cell line was used to provide tumor bulk cells and CSCs. […] Mouse CSCs were generated from the SMA560 glioma cell line and cultured for 7 days.

[4] = tested on: murine SMA560 glioma cancer stem cells (CSC)
Description: as §1

[5] = tested on: cancer stem cells (CSC) derived from four glioblastoma patients; test: Cytotoxicity in cancer stem cells from glioblastoma patients; assay type: cell-based, human; conditions: for Cytotoxicity EC50, Mean ± SD: mean of CSCs from four glioblastoma patients, 24 h
Description: Tissue samples from high grade gliomas WHO grade IV from newly diagnosed patients (medium age of 54±10 years) were minced mechanically, digested enzymatically and the dissociated cells were filtered. The isolated tumor cells were cultured as bulk cells. Cancer Stem Cells (CSCs) were isolated by the formation of neurospheres under neurosphere conditions (using neurobasal medium) from the murine SMA 560 glioma cell line or from freshly isolated human glioblastoma cells.
The number of remaining adherent cells were stained (crystal violet or Alamar Blue) and quantified by absorbance measurements (540 nm). Cell survival was expressed as the percentage of cells surviving relative to the number of cells surviving in untreated control cultures. The results are given as % killing rate or EC50 as the dose required for half-maximal cytotoxicity. Results
CSCs were isolated from glioblastoma tissue resected from four patients. […].

Row | SMILES | effectiveness in treating cancers in patients [1] | safety for use in patients [1] | further results
1 | O=S1(=O)CCNCO1 [A1] | effective in treating such cancers | safe for use in patients | –
2 | O=S1(=O)CCOCO1 [A3] | effective in treating such cancers | safe for use in patients | –
3 | O=S1(=O)CCN(CN2COCCS2(=O)=O)CN1 [B1] | effective in treating such cancers | safe for use in patients | –
4 | O=S1(=O)CCN(CN2CCS(=O)(=O)OC2)CN1 [B2] | effective in treating such cancers | safe for use in patients | –
5 | O=S1(=O)CCN(CN2CCS(=O)(=O)OC2)CO1 [B3] | effective in treating such cancers | safe for use in patients | –
6 | O=S1(=O)CCOCN1CN1COCCS1(=O)=O [compound 2245] | effective in treating such cancers | safe for use in patients | –
7 | CN1COCCS1(=O)=O [compound 2255] | effective in treating such cancers | safe for use in patients | –
8 | O=S1(=O)CCNCN1 [taurultam] | – | – | EC50 [2]: ~50 µg/mL (≈ 367 µM); Cytotoxicity EC50 [3]: 19.3 µg/mL; sensitivity of CSCs versus corresponding glioma bulk cells, based on EC50 ([4]; mouse SMA 560 CSCs vs bulk cells): ~2 fold; Cytotoxicity EC50 ([4]; murine CSCs cultured 7 days, 24 hours treatment): 10 µg/mL; Cytotoxicity EC50 (μg/ml) 24 h ([5]; CSC GBM #3, 24 h): 10.5 µg/mL; Cytotoxicity EC50 (μg/ml) 24 h ([5]; CSC GBM #4, 24 h): 12.5 µg/mL; Cytotoxicity EC50 (μg/ml) 24 h ([5]; CSC GBM #5, 24 h): 11 µg/mL; Cytotoxicity EC50 (μg/ml) 24 h ([5]; CSC GBM #6, 24 h): 9 µg/mL; Cytotoxicity EC50, Mean ± SD [5]: 11 ± 1.4 µg/mL; Cytotoxicity EC50, Mean ± SD ([5]; listed as Taurultam): 11 ± 1.4 µg/mL
